According to ChEMBL document CHEMBL3886378, “Heterocyclic sulfone mGluR4 allosteric potentiators, compositions, and methods of treating neurological dysfunction” (2015):
Blank lines part the entries; values can stand above or below the compound they belong to.

Biological target: Metabotropic glutamate receptor 4 (Homo sapiens, UniProt Q14833)
Assay: Receptor Activity Assay: The disclosed compounds and compositions can be evaluated for their ability to act as a potentiator of metabotropic glutamate receptor activity, in particular mGluR4 activity, by any suitable known methodology known in the art. For example, Chinese Hamster Ovary (CHO) cells transfected with human mGluR4 or HEK cells co-transfected with rat mGluR4 and the G-protein regulated Inwardly Rectifying Potassium channel (GIRK) were plated in clear bottom assay plates for assay in a Hamamatsu FDSS Fluorometric Plate Reader. The cells were loaded with either a Ca2+-sensitive fluorescent dye or the thallium responsive dye and the plates were washed and placed into a suitable kinetic plate reader. For human mGluR4 assays, a fluorescence baseline was established for 3-5 seconds, the disclosed compounds were then added to the cells, and the response in cells was measured.
Type: functional, cell-based, HEK293

Sequence of Metabotropic glutamate receptor 4 (Q14833 whole entry): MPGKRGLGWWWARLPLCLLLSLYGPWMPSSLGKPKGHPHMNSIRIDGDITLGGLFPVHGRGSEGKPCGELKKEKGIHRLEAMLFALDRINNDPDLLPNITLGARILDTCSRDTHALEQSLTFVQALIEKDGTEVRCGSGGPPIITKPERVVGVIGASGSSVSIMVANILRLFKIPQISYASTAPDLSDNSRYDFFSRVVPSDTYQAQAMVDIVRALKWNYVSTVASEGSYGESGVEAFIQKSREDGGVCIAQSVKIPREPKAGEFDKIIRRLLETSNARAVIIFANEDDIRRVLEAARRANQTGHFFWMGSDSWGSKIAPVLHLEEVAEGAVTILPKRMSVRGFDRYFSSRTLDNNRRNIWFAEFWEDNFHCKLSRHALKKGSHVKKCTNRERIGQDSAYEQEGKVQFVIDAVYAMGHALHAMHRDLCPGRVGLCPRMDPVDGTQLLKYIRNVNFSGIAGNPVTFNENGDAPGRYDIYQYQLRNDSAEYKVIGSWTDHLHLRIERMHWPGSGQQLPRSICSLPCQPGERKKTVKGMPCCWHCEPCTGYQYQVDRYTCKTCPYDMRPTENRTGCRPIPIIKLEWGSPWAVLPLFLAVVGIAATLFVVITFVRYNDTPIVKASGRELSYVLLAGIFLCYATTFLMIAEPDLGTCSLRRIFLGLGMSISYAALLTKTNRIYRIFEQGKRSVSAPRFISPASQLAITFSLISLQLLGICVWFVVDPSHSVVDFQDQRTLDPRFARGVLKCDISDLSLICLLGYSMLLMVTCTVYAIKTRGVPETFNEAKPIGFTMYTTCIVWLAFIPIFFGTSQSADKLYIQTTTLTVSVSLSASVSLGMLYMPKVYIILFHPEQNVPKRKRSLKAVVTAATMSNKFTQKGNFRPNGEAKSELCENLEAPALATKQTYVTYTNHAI

SMILES: Cc1nc(NC(=O)c2ccccn2)sc1S(=O)(=O)Cc1ccccc1Cl
- EC50: 504 nM

SMILES: CCc1nc(NC(=O)c2ccccn2)sc1S(=O)(=O)Cc1c(F)cccc1F
- EC50: 139 nM

SMILES: O=C(Nc1ncc(S(=O)(=O)Cc2ccccc2Cl)s1)c1ccccn1
- EC50: > 10000 nM

SMILES: O=C(Nc1ncc(S(=O)(=O)Cc2ccc(Cl)cc2F)s1)c1ccccn1
- EC50: 44.1 nM

SMILES: Cc1nc(NC(=O)c2ccccn2)sc1S(=O)(=O)Cc1c(F)cccc1Cl
- EC50: 192 nM

SMILES: CCc1nc(NC(=O)c2ccccn2)sc1S(=O)(=O)Cc1c(F)cccc1Cl
- EC50: 141 nM

SMILES: Cc1ccccc1CS(=O)(=O)c1sc(NC(=O)c2ccccn2)nc1C
- EC50: 709 nM

SMILES: CCc1nc(NC(=O)c2ccccn2)sc1S(=O)(=O)Cc1ccc(Cl)cc1Cl
- EC50: 939 nM

SMILES: O=C(Nc1nc(C2CC2)c(S(=O)(=O)Cc2ccccc2Cl)s1)c1ccccn1
- EC50: 2980 nM

SMILES: O=C(Nc1nc(C(F)(F)F)c(S(=O)(=O)Cc2c(F)cccc2F)s1)c1ccccn1
- EC50: 1060 nM

SMILES: O=C(Nc1nc(C2CC2)c(S(=O)(=O)Cc2c(F)cccc2F)s1)c1ccccn1
- EC50: > 10000 nM

SMILES: Cc1nc(NC(=O)c2ccccn2)sc1S(=O)(=O)Cc1ccc(Cl)cc1
- EC50: 486 nM

SMILES: COc1ccc(CS(=O)(=O)c2sc(NC(=O)c3ccccn3)nc2C)cc1
- EC50: 1960 nM

SMILES: O=C(Nc1ncc(SCc2ccc(Cl)cc2Cl)s1)c1ccccn1
- EC50: 5000 nM

SMILES: O=C(Nc1ncc(S(=O)(=O)Cc2ccccc2F)s1)c1ccccn1
- EC50: 398 nM

SMILES: CCc1nc(NC(=O)c2ccccn2)sc1S(=O)(=O)Cc1c(C)cc(C)cc1C
- EC50: 354 nM

SMILES: Cc1nc(NC(=O)c2ccccn2)sc1S(=O)(=O)Cc1ccc(F)cc1
- EC50: 1510 nM

SMILES: CCc1nc(NC(=O)c2ccccn2)sc1S(=O)(=O)Cc1c(Cl)cccc1Cl
- EC50: 88 nM

SMILES: Cc1ccc(CS(=O)(=O)c2sc(NC(=O)c3ccccn3)nc2C)cc1
- EC50: 445 nM

SMILES: Cc1nc(NC(=O)c2ccccn2)sc1S(=O)(=O)Cc1ccc(F)c(Cl)c1
- EC50: 2350 nM

SMILES: Cc1ccc(S(=O)(=O)c2sc(NC(=O)c3ccccn3)nc2C)cc1
- EC50: 1610 nM

SMILES: Cc1cccc(S(=O)(=O)c2sc(NC(=O)c3ccccn3)nc2C)c1
- EC50: 6970 nM

SMILES: O=C(Nc1ncc(S(=O)(=O)Cc2c(F)cccc2F)s1)c1ccccn1
- EC50: 170 nM

SMILES: Cc1nc(NC(=O)c2ccccn2)sc1S(=O)(=O)Cc1cccc(Cl)c1
- EC50: 1390 nM

SMILES: O=C(Nc1ncc(S(=O)(=O)Cc2ccc(Cl)cc2Cl)s1)c1ccccn1
- EC50: 49.9 nM

SMILES: CC(C)c1nc(NC(=O)c2ccccn2)sc1S(=O)(=O)C(C)c1ccccc1Cl (stereo not given)
- EC50: 3750 nM

SMILES: CCc1nc(NC(=O)c2ccccn2)sc1S(=O)(=O)Cc1ccc(C)cc1
- EC50: 450 nM

SMILES: Cc1nc(NC(=O)c2ccccn2)sc1S(=O)(=O)C(C)c1ccccc1Cl (stereo not given)
- EC50: 3230 nM

SMILES: O=C(Nc1ncc(SCc2ccc(Cl)cc2F)s1)c1ccccn1
- EC50: 8240 nM

SMILES: O=C(Nc1nc(CF)c(S(=O)(=O)Cc2c(F)cccc2F)s1)c1ccccn1
- EC50: 463 nM

SMILES: O=C(Nc1nc(CO)c(S(=O)(=O)Cc2c(F)cccc2F)s1)c1ccccn1
- EC50: 8810 nM

SMILES: O=C(Nc1nc(C(F)(F)F)c(S(=O)(=O)Cc2ccccc2F)s1)c1ccccn1
- EC50: 401 nM

SMILES: Cc1nc(NC(=O)c2ccccn2)sc1S(=O)(=O)Cc1cccc(Cl)c1F
- EC50: 535 nM

SMILES: O=C(Nc1nc(C2CC2)c(S(=O)(=O)Cc2ccc(Cl)cc2Cl)s1)c1ccccn1
- EC50: > 10000 nM

SMILES: O=C(Nc1nc(C(F)(F)F)c(S(=O)(=O)Cc2ccc(Cl)cc2Cl)s1)c1ccccn1
- EC50: 497 nM

SMILES: O=C(Nc1nnc(S(=O)(=O)Cc2ccccc2)s1)c1ccccn1
- EC50: > 10000 nM

SMILES: CCc1nc(NC(=O)c2ccccn2)sc1S(=O)(=O)Cc1cccc(Cl)c1F
- EC50: 488 nM

SMILES: Cc1nc(NC(=O)c2ccccn2)sc1S(=O)(=O)Cc1ccccc1C(F)(F)F
- EC50: 1020 nM

SMILES: O=C(Nc1nc(C2CC2)c(S(=O)(=O)Cc2ccccc2F)s1)c1ccccn1
- EC50: 249 nM

SMILES: Cc1nc(NC(=O)c2ccccn2)sc1S(=O)(=O)Cc1cccc(C(F)(F)F)c1
- EC50: 2460 nM

SMILES: Cc1nc(NC(=O)c2ccccn2)sc1S(=O)(=O)Cc1c(Cl)cccc1Cl
- EC50: 117 nM

SMILES: Cc1nc(NC(=O)c2ccccn2)sc1S(=O)(=O)Cc1ccc(C(C)C)cc1
- EC50: 1050 nM

SMILES: Cc1nc(NC(=O)c2ccccn2)sc1S(=O)(=O)C(C)c1ccccc1F (stereo not given)
- EC50: 4780 nM

SMILES: O=C(Nc1nc(C(F)(F)F)c(S(=O)(=O)Cc2ccccc2Cl)s1)c1ccccn1
- EC50: 271 nM

Other lines, results leading:

- EC50: 255 nM
SMILES: Cc1nc(NC(=O)c2ccccn2)sc1S(=O)(=O)Cc1ccc(Cl)cc1F

- EC50: 1010 nM
SMILES: Cc1nc(NC(=O)c2ccccn2)sc1S(=O)(=O)Cc1ccc(F)cc1F

- EC50: 312 nM
SMILES: Cc1nc(NC(=O)c2ccccn2)sc1S(=O)(=O)Cc1c(F)cccc1F

- EC50: 294 nM
SMILES: CCc1nc(NC(=O)c2ccccn2)sc1S(=O)(=O)Cc1ccc(Cl)cc1F

- EC50: 1730 nM
SMILES: O=C(Nc1nc(C(F)(F)F)c(S(=O)(=O)Cc2ccc(F)cc2F)s1)c1ccccn1

- EC50: 9570 nM
SMILES: CC(C)c1nc(NC(=O)c2ccccn2)sc1S(=O)(=O)C(C)c1ccccc1F (stereo not given)

- EC50: 1330 nM
SMILES: Cc1nc(NC(=O)c2ccccn2)sc1S(=O)(=O)Cc1ccccc1F

- EC50: 683 nM
SMILES: O=C(Nc1nc(C(F)F)c(S(=O)(=O)Cc2c(F)cccc2F)s1)c1ccccn1

- EC50: 322 nM
SMILES: Cc1nc(NC(=O)c2ccccn2)sc1S(=O)(=O)Cc1cc(F)c(F)cc1F

- EC50: 1050 nM
SMILES: O=C(Nc1nc(C2CC2)c(S(=O)(=O)Cc2ccc(F)cc2F)s1)c1ccccn1

- EC50: 937 nM
SMILES: Cc1nc(NC(=O)c2ccccn2)sc1S(=O)(=O)Cc1ccc(F)c(F)c1

- EC50: 289 nM
SMILES: Cc1nc(NC(=O)c2ccccn2)sc1S(=O)(=O)Cc1ccc(Cl)cc1Cl

- EC50: 1290 nM
SMILES: O=C(Nc1nc(C2CC2)c(S(=O)(=O)Cc2ccc(Cl)cc2F)s1)c1ccccn1

- EC50: 316 nM
SMILES: CC(C)c1nc(NC(=O)c2ccccn2)sc1S(=O)(=O)Cc1c(F)cccc1F

- EC50: 3660 nM
SMILES: CC(C)c1nc(NC(=O)c2ccccn2)sc1S(=O)(=O)Cc1ccccc1F

- EC50: 2930 nM
SMILES: CC(C)c1nc(NC(=O)c2ccccn2)sc1S(=O)(=O)Cc1ccc(Cl)cc1F

- EC50: 3300 nM
SMILES: CC(C)c1nc(NC(=O)c2ccccn2)sc1S(=O)(=O)Cc1ccc(Cl)cc1Cl

- EC50: 1950 nM
SMILES: CC(C)c1nc(NC(=O)c2ccccn2)sc1S(=O)(=O)Cc1ccccc1Cl

- EC50: 1070 nM
SMILES: Cc1nc(NC(=O)c2ccccn2)sc1S(=O)(=O)Cc1cc(F)ccc1F

- EC50: 181 nM
SMILES: O=C(Nc1nc(C(F)(F)F)c(S(=O)(=O)Cc2ccc(Cl)cc2F)s1)c1ccccn1

- EC50: 3110 nM
SMILES: CC(C)c1nc(NC(=O)c2ccccn2)sc1S(=O)(=O)Cc1ccc(F)cc1F
